Earlier results, collected in patent US20210123869A1, “METHOD FOR MEASURING PH OF TEST WATER” (MIURA CO., LTD., priority 2018, published 2021).

Conditions: value at 25° C.; two values for reagents acid-dissociated in two stages

## Cc1c(C2(c3cc(Br)c(O)c(Br)c3C)OS(=O)(=O)c3ccccc32)cc(Br)c(O)c1Br [bromocresol green]
  acid dissociation constant (pKa): 4.7

## alizarin yellow
  acid dissociation constant (pKa): 11.06

## Cc1cc(C2(c3cc(C)c(O)c(Br)c3)OS(=O)(=O)c3ccccc32)cc(Br)c1O [bromocresol purple]
  acid dissociation constant (pKa): 6.3
